SMILES strings stand for the structures. pEC50: −log10 of the molar value.

The pEC50 is −log10 of the EC50, conventionally taken in molar units. High values mean a small EC50, low ones a large EC50.

This assay deals with HCoV 229E. As to the kind of experiment: HCoV 229E cytopathic effect (CPE) assay. The class given is cell-based, Human Coronavirus (HCov) 229E. The note with it: CellTiter Glo. (In general: Protection from cytopathic effect is a common read-out in antiviral testing.)
Description: The antiviral activity of compounds was calculated based on the protection of the virus-induced CPE at each concentration normalized by the virus control.
Reagents and instruments used in this assay include luminescent cell viability assay kit CellTiter Glo (Promega) and Microplate Reader Synergy2 (BioTek).
Cytopathic effect (CPE) was measured by CellTiter Glo following the manufacturer's manual. The antiviral activity of compounds was calculated based on the protection of the virus-induced CPE at each concentration normalized by the virus control.
In turn, `N#C[C@H](C[C@@H]1CCNC1=O)NC(=O)[C@H](CC1CC1)NC(=O)c1cc2cccc(Cl)c2[nH]1` [Compound 531, 7-chloro-N-[(1S)-2-[[(1S)-1-cyano-2-[(3S)-2-oxopyrrolidin-3-yl]ethyl]amino]-1-(cyclopropylmethyl)-2-oxo-ethyl]-1H-indole-2-carboxamide] had a pEC50 of more than 5.70.
`COc1cccc2[nH]c(C(=O)N[C@@H](CC(C)C)C(=O)N[C@@H](C[C@@H]3CCNC3=O)C(C#N)N3CCCC3)cc12` (single isomer, unassigned) [331 (Isomer 1)]: the pEC50 was more than 5.70.
For `CC(C)C[C@H](NC(=O)/C=C/c1ccc(Cl)cc1F)C(=O)N[C@H](C#N)C[C@@H]1CCNC1=O` [Compound 598], the pEC50 was more than 5.70.
Regarding `CCNC(C#N)[C@H](C[C@@H]1CCNC1=O)NC(=O)[C@H](CC(C)C)NC(=O)c1cc2c(OC)cccc2[nH]1` (stereo partly drawn) [Compound 511, N-[(1S)-1-[[(1S)-2-cyano-2-(ethylamino)-1-[[(3S)-2-oxopyrrolidin-3-yl]methyl]ethyl]carbamoyl]-3-methyl-butyl]-4-methoxy-1H-indole-2-carboxamide], the pEC50 is more than 5.70.
Then `COc1cccc2[nH]c(C(=O)N[C@@H](CC3CCCCC3)C(=O)N[C@H](C#N)C[C@@H]3CCNC3=O)cc12` [Compound 185, N-[(1S)-2-[[(1S)-1-cyano-2-[(3S)-2-oxopyrrolidin-3-yl]ethyl]amino]-1-(cyclohexylmethyl)-2-oxo-ethyl]-4-methoxy-1H-indole-2-carboxamide], with more than 5.70; and `COc1cccc2[nH]c(C(=O)N3C[C@H](c4ccccc4)C[C@H]3C(=O)N[C@@H](C[C@@H]3CCNC3=O)C(O)C#N)cc12` (single isomer, unassigned) [345 (Isomer 2)], with more than 5.70.
Then `N#C[C@H](C[C@@H]1CCCNC1=O)NC(=O)[C@H](CC1CC1)NC(=O)c1cc2c(Cl)nccc2[nH]1` [Compound 715], with more than 5.70; and `COc1cccc2[nH]c(C(=O)N[C@@H](CC(C)C)C(=O)N[C@@H](C[C@@H]3CCNC3=O)C(C#N)NCc3ccccc3)cc12` (single isomer, unassigned) [507 (Isomer 1.1)], with more than 5.70.
With `CC(C)C[C@H](NC(=O)c1nc2c(OC(F)(F)F)cccc2[nH]1)C(=O)N[C@H](C#N)C[C@@H]1CCNC1=O` [Compound 363], the pEC50 was more than 5.70.
In the case of `COc1cccc2[nH]c(C(=O)N3C[C@H](c4ccccc4)CC3C(=O)N[C@H](C=O)C[C@@H]3CCNC3=O)cc12` (stereo partly drawn) [Compound 344A], the negative logarithm of the EC50 (pEC50) was more than 5.70.
`COc1cccc2[nH]c(C(=O)N[C@@H](CC3CCC3)C(=O)N[C@H](C#N)C[C@@H]3CCNC3=O)cc12` [Compound 577] showed a pEC50 of more than 5.70.
As to `CC(C)C[C@H](NC(=O)c1cc2c(OC(F)F)cccc2[nH]1)C(=O)N[C@H](C#N)C[C@@H]1CCNC1=O` [Compound 509], the pEC50 was more than 5.70.
Turning to `CC(C)(C)C[C@H](NC(=O)c1cc2ccc(Cl)c(Cl)c2[nH]1)C(=O)N[C@H](C#N)C[C@@H]1CCCNC1=O` [Compound 725], the pEC50 is more than 5.70.
As for `COc1cccc2[nH]c(C(=O)N[C@@H](CC(C)C)C(=O)N[C@@H](C[C@@H]3CCNC3=O)C(O)C#N)cc12` (single isomer, unassigned; isomer 2) [135 (Isomer 2)], the pEC50 was more than 5.70.
In the case of `COc1ccc(Cl)c2[nH]c(C(=O)N[C@@H](CC(C)(C)C)C(=O)N[C@H](C#N)C[C@@H]3CCCNC3=O)cc12` [Compound 737], the pEC50 was more than 5.70.
`COc1cccc2[nH]c(C(=O)N3CC(C45CC(C4)C5)C[C@H]3C(=O)N[C@H](C#N)C[C@@H]3CCNC3=O)cc12` (single isomer, unassigned) [385 (Isomer 1)] showed a pEC50 of more than 5.70.
Molecule `COc1cccc2[nH]c(C(=O)N[C@@H](CC(C)(C)C)C(=O)N[C@H](C#N)C[C@@H]3CCCNC3=O)cc12` [Compound 643, N-[(1S)-1-[[(1S)-1-cyano-2-[(3S)-2-oxo-3-piperidyl]ethyl]carbamoyl]-3,3-dimethyl-butyl]-4-methoxy-1H-indole-2-carboxamide] showed a pEC50 of more than 5.70.
In turn, `COc1cccc2[nH]c(C(=O)N[C@@H](CC(C)C)C(=O)N[C@@H](C[C@@H]3CCNC3=O)C(C#N)N[C@@H](C)c3ccccc3)cc12` (stereo partly drawn) [Compound 329] had a pEC50 of more than 5.70.
In the case of `COc1cccc2[nH]c(C(=O)N[C@@H](CC(C)C)C(=O)N[C@@H](C[C@@H]3CCNC3=O)C(C#N)NC(C)(C)C)cc12` (single isomer, unassigned) [323 (Isomer 1)], the pEC50 was more than 5.70.
The figure for `N#C[C@H](C[C@@H]1CCCNC1=O)NC(=O)[C@H](CC1CC1)NC(=O)c1cc2ccc(Cl)cc2[nH]1` [Compound 635, 6-Chloro-N-[(1S)-2-[[(1S)-1-cyano-2-[(3S)-2-oxo-3-piperidyl]ethyl]amino]-1-(cyclopropylmethyl)-2-oxo-ethyl]-1H-indole-2-carboxamide] is more than 5.70; for `CCOc1cccc2[nH]c(C(=O)N[C@@H](CC(C)C)C(=O)N[C@H](C#N)C[C@@H]3CCNC3=O)cc12` [Compound 377] it is more than 5.70.
As for `COc1cccc2[nH]c(C(=O)N3CC4(CCCCC4)CC3C(=O)N[C@H](C#N)C[C@@H]3CCCNC3=O)cc12` (single isomer, unassigned) [681 (Isomer 1)], the pEC50 was more than 5.70.
`COc1c(Cl)ccc2[nH]c(C(=O)N[C@@H](CC(C)(C)C)C(=O)N[C@H](C#N)C[C@@H]3CCCNC3=O)cc12` [Compound 739] showed a pEC50 of more than 5.70.
The figure for `COc1cccc2[nH]c(C(=O)N3C[C@@H]4CCC[C@@H]4[C@H]3C(=O)N[C@H](C#N)C[C@@H]3CCNC3=O)cc12` [Compound 393] is more than 5.70; for `N#C[C@H](C[C@@H]1CCNC1=O)NC(=O)[C@H](CC1CC1)NC(=O)c1cc2c([nH]1)CCCC2` [Compound 711] it is more than 5.70.
For `COc1cccc2[nH]c(C(=O)N3C[C@H](c4ccccc4)C[C@H]3C(=O)N[C@@H](C[C@@H]3CCNC3=O)C(O)C#N)cc12` (stereo partly drawn) [Compound 345], the pEC50 is more than 5.70.
Take `CC(C)C[C@H](NC(=O)c1cc2c(OC(F)(F)F)cccc2[nH]1)C(=O)N[C@H](C#N)C[C@@H]1CCNC1=O` [Compound 361]: the pEC50 is more than 5.70.
Regarding `COc1cccc2[nH]c(C(=O)N3CC4(CC4)C[C@H]3C(=O)N[C@H](C#N)C[C@@H]3CCNC3=O)cc12` [Compound 397], the pEC50 is more than 5.70.
The figure for `COc1cccc2[nH]c(C(=O)N3CC4(CCCCC4)CC3C(=O)N[C@H](C#N)C[C@@H]3CCNC3=O)cc12` (single isomer, unassigned) [389A (Isomer 1)] is more than 5.70.
`CC(C)C[C@H](NC(=O)c1nc2cccc(Cl)c2[nH]1)C(=O)N[C@H](C#N)C[C@@H]1CCNC1=O` [Compound 133] gave a pEC50 of more than 5.70.
Then `N#C[C@H](C[C@@H]1CCNC1=O)NC(=O)[C@H](CC1CC1)NC(=O)c1cc2cc(Cl)ccc2[nH]1` [Compound 519], with more than 5.70; and `COc1cccc2[nH]c(C(=O)N[C@@H](CC3CC3)C(=O)N[C@H](C#N)C[C@@H]3CCCNC3=O)cc12` [Compound 491, N-[(1S)-2-[[(1S)-1-cyano-2-[(3S)-2-oxo-3-piperidyl]ethyl]amino]-1-(cyclopropylmethyl)-2-oxo-ethyl]-4-methoxy-1H-indole-2-carboxamide], with more than 5.70; and `COc1cccc2[nH]c(C(=O)N[C@@H](CC3CC3)C(=O)N[C@H](C#N)C[C@@H]3CCNC3=O)cc12` [Compound 205, N—((S)-1-(((S)-1-cyano-2-((S)-2-oxopyrrolidin-3-yl)ethyl)amino)-3-cyclopropyl-1-oxopropan-2-yl)-4-methoxy-1H-indole-2-carboxamide], with more than 5.70.
The molecule `CC(C)(C)C[C@H](NC(=O)c1cc2cccc(Cl)c2[nH]1)C(=O)N[C@H](C#N)C[C@@H]1CCCNC1=O` [Compound 721, 7-chloro-N—((S)-1-(((S)-1-cyano-2-((S)-2-oxopiperidin-3-yl)ethyl)amino)-4,4-dimethyl-1-oxopentan-2-yl)-1H-indole-2-carboxamide] gave a pEC50 of more than 5.70.
The molecule `CC(C)(C)C[C@H](NC(=O)c1cc2ccc(Cl)cc2[nH]1)C(=O)N[C@H](C#N)C[C@@H]1CCCNC1=O` [Compound 745] showed a pEC50 of more than 5.70.
With `COc1cccc2[nH]c(C(=O)N[C@@H](CC(C)C)C(=O)N[C@@H](C[C@@H]3CCNC3=O)C(O)C#N)cc12` (single isomer, unassigned) [134 (Isomer 1)], the pEC50 was more than 5.70.
`CC(C)C[C@H](NC(=O)c1nc2ccccc2[nH]1)C(=O)N[C@H](C#N)C[C@@H]1CCNC1=O` [Compound 103, N-[(1S)-1-[[(1S)-1-cyano-2-[(3S)-2-oxopyrrolidin-3-yl]ethyl]carbamoyl]-3-methyl-butyl]-1H-benzimidazole-2-carboxamide] showed a pEC50 of more than 5.70.
`COc1cccc2[nH]c(C(=O)N[C@@H](CC(C)C)C(=O)N[C@@H](C[C@@H]3CCNC3=O)C(N)C#N)cc12` (stereo partly drawn) [Compound 344C, N-[(1S)-1-[[(1S)-2-amino-2-cyano-1-[[(3S)-2-oxopyrrolidin-3-yl]methyl]ethyl]carbamoyl]-3-methyl-butyl]-4-methoxy-1H-indole-2-carboxamide] gave a pEC50 of more than 5.70.
`COc1cccc2[nH]c(C(=O)N[C@@H](CC(C)C)C(=O)N[C@@H](C[C@@H]3CCNC3=O)C(C#N)NCC(=O)O)cc12` (stereo partly drawn) [Compound 653] had a pEC50 of more than 5.70.
In the case of `COc1cccc2[nH]c(C(=O)NC(CC(C)C)C(=O)NC(CC3CCNC3=O)C(O)C#N)cc12` [Compound 134, N-[(1S)-1-[[(1S)-2-cyano-2-hydroxy-1-[[(3S)-2-oxopyrrolidin-3-yl]methyl]ethyl]carbamoyl]-3-methyl-butyl]-4-methoxy-1H-indole-2-carboxamide], the pEC50 was more than 5.70.
`COc1cccc2[nH]c(C(=O)N[C@@H](CC(C)C)C(=O)N[C@H](C#N)C[C@@H]3CCNC3=O)cc12` [Compound 101, N-[(1S)-1-[[(1S)-1-cyano-2-[(3S)-2-oxopyrrolidin-3-yl]ethyl]carbamoyl]-3-methyl-butyl]-4-methoxy-1H-indole-2-carboxamide]: the pEC50 is more than 5.70.
Take `CC(C)(C)C[C@H](NC(=O)c1cc2c(Cl)ccc(Cl)c2[nH]1)C(=O)N[C@H](C#N)C[C@@H]1CCCNC1=O` [Compound 735]: the pEC50 is more than 5.70.

These data come from US11312704B2, “Inhibitors of cysteine proteases and methods of use thereof” (priority 2020, dated 2022).
